Literature values, collected in US12268699B2, “Transdermal delivery of tetrahydrocannabinol” (Pike Therapeutics Inc., priority 2019, dated 2025).
Read-outs that look alike come from different tables or passages of the source.

What was measured:
[1] = in 96 hrs. with 6% Brij O20
CB1 = CB1 (Homo sapiens, UniProt P21554)
CB2 = CB2 (Homo sapiens, UniProt P34972)
CB2 receptor over CB1 = settings: given as ×, -fold or times
[2] = system: complete Freund's adjuvant-induced monoarthritic knee join mode; settings: transdermal

Chain of CB1 (P21554 whole entry, species assumed): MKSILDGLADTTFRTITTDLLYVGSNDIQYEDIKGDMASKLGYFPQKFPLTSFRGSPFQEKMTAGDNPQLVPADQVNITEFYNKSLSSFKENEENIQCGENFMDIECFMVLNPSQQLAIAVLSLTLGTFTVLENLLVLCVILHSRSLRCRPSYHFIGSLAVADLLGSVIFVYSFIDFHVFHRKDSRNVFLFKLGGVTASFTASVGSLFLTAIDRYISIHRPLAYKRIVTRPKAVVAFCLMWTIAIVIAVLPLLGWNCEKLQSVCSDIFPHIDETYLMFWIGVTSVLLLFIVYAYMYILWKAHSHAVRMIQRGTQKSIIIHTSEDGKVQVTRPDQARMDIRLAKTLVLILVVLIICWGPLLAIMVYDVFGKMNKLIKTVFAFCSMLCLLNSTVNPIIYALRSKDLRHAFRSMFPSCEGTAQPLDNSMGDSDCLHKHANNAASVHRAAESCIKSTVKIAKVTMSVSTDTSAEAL
Chain of CB2 (P34972 whole entry, species assumed): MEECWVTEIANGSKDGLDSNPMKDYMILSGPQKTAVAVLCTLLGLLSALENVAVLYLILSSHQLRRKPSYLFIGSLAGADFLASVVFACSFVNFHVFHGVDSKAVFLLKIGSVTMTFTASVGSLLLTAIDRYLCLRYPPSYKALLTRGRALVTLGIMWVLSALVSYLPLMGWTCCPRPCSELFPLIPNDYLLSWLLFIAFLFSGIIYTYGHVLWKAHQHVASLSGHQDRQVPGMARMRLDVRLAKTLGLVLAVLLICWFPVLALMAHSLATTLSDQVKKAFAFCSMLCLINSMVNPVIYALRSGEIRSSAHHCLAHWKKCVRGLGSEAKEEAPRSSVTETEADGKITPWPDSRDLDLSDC

CCCCCc1cc(O)c2c(c1)OC(C)(C)[C@@H]1CCC(C)=C[C@@H]21 [naturally derived delta-9-THC, (−)-(6aR,10aR)-6,6,9-Trimethyl-3-pentyl-6a,7,8,10a-tetrahydro-6H-benzo[c]chromen-1-ol]
skin permeability [1]: 20 µg

CCCCCn1cc(C(=O)c2ccc(Cl)c3ccccc23)c2ccccc21 [JWH-398]
Ki (CB1): 2.3 nM | Ki (CB2): 2.8 nM

CCCCCn1cc(C(=O)c2cccc3cccc(Br)c23)c2ccccc21 [JWH-424]
Ki (CB1): 20.9 nM | Ki (CB2): 5.44 nM

CCCn1c(C)c(C(=O)c2ccc(C)c3ccccc23)c2ccccc21 [JWH-148]
selectivity for CB2 over CB1 (CB2 receptor over CB1): more than 8

CCCn1cc(C(=O)c2ccc(C)c3ccccc23)c2ccccc21 [JWH-120]
selectivity for CB2 over CB1 (CB2 receptor over CB1): 173

CCCCCCC(C)(C)c1cc(O)c2c(c1)oc(=O)c1ccc(OC)cc12 [AM-1710]
selectivity for CB2 over CB1 (CB2 receptor over CB1): 54

C=C(C)[C@@H]1CCC(C)=C[C@H]1c1c(O)cc(CCCCC)cc1O [CBD, 2-[(1R,6R)-6-isopropenyl-3-methylcyclohex-2-en-1-yl]-5-pentylbenzene-1,3-diol]
knee-joint swelling ([2]; dose of 6.2 mg/day): reduce knee-joint swelling | knee-joint swelling ([2]; dose of 62 mg/day): failed to yield any additional improvement

CCCCCCC(C)(C)c1cc(OC)c2c(c1)OC(C)(C)C1CCC(O)CC21 (stereo not drawn) [JWH-350, 11-nor-1-methoxy-3-(1′,1′-dimethylheptyl)-9α-hydroxyhexahydrocannabinol]
selectivity for CB2 over CB1 (CB2 receptor over CB1): 33
